Laboratory results published in publication PMC11904993, “Humanized Candida and NanoBiT Assays Expedite Discovery of Bdf1 Bromodomain Inhibitors With Antifungal Potential” (Advanced Science, 2025).

Tests used:
[1] = biological target: T1, CaBdf1 BD1 (Candida albicans, UniProt Q5A4W8); assay: HTRF assay, inhibition of H4ac4 peptide binding; set-up: species or system C. albicans
T1 construct: BD1 (residues 193–327) and BD2 (residues 361–501) from CaBdf1 (Uniprot ID Q5A4W8); made in house; host or cells: E. coli BL21(DE3)
T1 sequence (Q5A4W8 193-327): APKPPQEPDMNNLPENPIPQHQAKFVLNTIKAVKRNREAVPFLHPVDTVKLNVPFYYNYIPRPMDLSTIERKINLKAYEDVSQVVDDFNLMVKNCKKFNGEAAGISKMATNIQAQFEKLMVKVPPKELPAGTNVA

[2] = biological target: C. auris Bdf1 BD1 (Candidozyma auris (Candida auris), UniProt A0AAW0VEM6); assay: HTRF assay, inhibition of H4ac4 peptide binding
Sequence of C. auris Bdf1 BD1 (A0AAW0VEM6 entry or part of it): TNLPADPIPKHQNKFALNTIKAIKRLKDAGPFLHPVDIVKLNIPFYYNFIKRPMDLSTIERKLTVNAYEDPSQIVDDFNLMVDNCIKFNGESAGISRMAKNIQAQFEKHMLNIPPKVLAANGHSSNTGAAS

[3] = system: HeLa cells; conditions: highest concentration tested (300 µM); 24 h
Procedure: Cytotoxicity assays were performed as described^[ [1] ^] with minor changes. Proliferation of human cells was assessed using an MTT colorimetric assay (Cell Proliferation Kit I, Roche). HeLa (epithelial cells, ATCC number CCL‐2) and IMR90 (primary fibroblasts cells, ATCC number CCL‐186) cells were cultured in humidified atmosphere (37 °C and 5% CO2) in DMEM medium containing 10% heat inactivated fetal calf serum and 2 mM glutamine. […] Plates were incubated at 37 °C and 5% CO2 for 24 h before adding 10 mL of MTT labelling reagent (final concentration 0.5 mg mL^−1) to each well. After incubating for a further 4 h, 100 µL of the solubilization solution were added in each well. Plates were allowed to stand overnight in the incubator before measuring the absorbance at 570 nm and at 690 nm in a ClarioStar plate reader. The values of A570–A690 nm were normalized relative to that obtained with vehicle (0.2% DMSO, 0.8% ethanol) and plotted against compound concentration.

[4] = biological target: T2, Bdf1/Swc4 (Saccharomyces cerevisiae, UniProt P35817); assay: NanoBiT assay, control pair; assay type: cell-based, S. cerevisiae; set-up: remaining activity: dose or concentration left out as unconfirmed
T2 construct: expressed in transfected cells; host or cells: S. cerevisiae
T2 sequence (P35817 whole entry): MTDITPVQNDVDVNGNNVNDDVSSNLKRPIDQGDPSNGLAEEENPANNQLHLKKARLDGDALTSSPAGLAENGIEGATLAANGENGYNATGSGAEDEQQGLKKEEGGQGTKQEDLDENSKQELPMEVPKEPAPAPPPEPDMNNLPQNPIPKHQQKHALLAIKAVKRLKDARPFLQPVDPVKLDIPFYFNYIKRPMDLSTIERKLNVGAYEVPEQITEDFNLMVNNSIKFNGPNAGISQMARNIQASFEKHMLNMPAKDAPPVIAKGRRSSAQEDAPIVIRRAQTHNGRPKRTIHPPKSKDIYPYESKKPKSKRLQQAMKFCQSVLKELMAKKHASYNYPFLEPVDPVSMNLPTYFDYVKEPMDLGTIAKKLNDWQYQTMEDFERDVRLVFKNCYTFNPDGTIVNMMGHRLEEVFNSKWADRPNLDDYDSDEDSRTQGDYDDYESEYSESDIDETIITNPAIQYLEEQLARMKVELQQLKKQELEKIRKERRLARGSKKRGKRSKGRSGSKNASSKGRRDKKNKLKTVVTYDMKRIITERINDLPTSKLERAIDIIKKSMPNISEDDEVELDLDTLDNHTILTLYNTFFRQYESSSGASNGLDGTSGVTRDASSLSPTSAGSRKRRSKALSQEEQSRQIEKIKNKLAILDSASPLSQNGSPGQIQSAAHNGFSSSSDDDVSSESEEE
T2 sequence (P53201 whole entry, further chain): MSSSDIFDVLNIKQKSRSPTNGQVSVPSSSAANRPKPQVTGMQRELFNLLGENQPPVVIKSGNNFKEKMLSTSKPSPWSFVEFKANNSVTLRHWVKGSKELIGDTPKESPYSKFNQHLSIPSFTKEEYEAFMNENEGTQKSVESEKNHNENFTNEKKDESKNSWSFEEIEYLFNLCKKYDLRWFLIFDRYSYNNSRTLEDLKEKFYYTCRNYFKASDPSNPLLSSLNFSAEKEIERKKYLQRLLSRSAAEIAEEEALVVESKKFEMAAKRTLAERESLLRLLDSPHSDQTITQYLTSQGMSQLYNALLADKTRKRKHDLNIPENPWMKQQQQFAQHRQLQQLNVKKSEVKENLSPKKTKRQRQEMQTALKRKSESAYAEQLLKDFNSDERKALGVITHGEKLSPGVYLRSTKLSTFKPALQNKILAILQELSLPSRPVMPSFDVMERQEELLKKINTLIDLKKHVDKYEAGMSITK
Procedure: (§1) Yeast strains were distributed in 96‐well microplates containing SC(MSG)‐U medium (SC‐U medium with 0.1% monosodium glutamate instead of ammonium sulfate as a nitrogen source) and grown at 30 °C. 40 µL of exponentially growing cells were transferred in white 96‐well half‐area microplates (ProxiPlate Plus, Greiner Bio‐One) previously filled with 40 µL per well of SC(MSG) containing 100 µM furimazine. The microplates were then incubated for 10 min in the dark before the luminescence signals were recorded using a microplate reader (Ensight, PerkinElmer). Luminescence measurements were performed for 1 s per well at a distance of 0.1 mm between the plate and the detector. The luminescence values were normalized with the optical density (OD600) of the corresponding cultures. For NanoBiT assays with BET inhibitors, yeast cultures were grown overnight at 30 °C in SC(MSG) medium in the presence of serial dilutions of 24c and I‐BET726. Overnight cultures were diluted 5 fold in SC(MSG) and incubated for 1 h before luminescence was recorded as previously indicated. Luminescence values for each condition were normalized using the average of the luminescence recorded for the Bdf1/Swc4 and Bmh1/Bmh2 controls.

[5] = biological target: T3, Bdf1‐SmBiT/H2A.Z‐LgBiT pair (Saccharomyces cerevisiae, UniProt P35817); assay: NanoBiT assay; assay type: cell-based, S. cerevisiae; set-up: remaining activity: dose or concentration left out as unconfirmed
T3 construct: expressed in transfected cells; host or cells: S. cerevisiae (H2A.Z-LgBiT strain)
T3 sequence (P35817 whole entry): as the sequence (P35817 whole entry) above
Procedure: as §1

[6] = biological target: T4, CaBdf1 BD2 (Candida albicans, UniProt Q5A4W8); assay: HTRF assay, inhibition of H4ac4 peptide binding; set-up: species or system C. albicans
T4 construct: BD1 (residues 193–327) and BD2 (residues 361–501) from CaBdf1 (Uniprot ID Q5A4W8); made in house; host or cells: E. coli BL21(DE3)
T4 sequence (Q5A4W8 361-501): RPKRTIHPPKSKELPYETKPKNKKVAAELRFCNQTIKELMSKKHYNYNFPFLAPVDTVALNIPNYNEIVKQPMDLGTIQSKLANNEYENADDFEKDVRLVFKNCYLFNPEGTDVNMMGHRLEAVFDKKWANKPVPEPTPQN

Cc1ccc(-c2nnc(C)c(NCc3ccc(C)o3)n2)cc1 [Compound 24c, 6‐methyl‐N‐((5‐methylfuran‐2‐yl)methyl)‐3‐(p‐tolyl)‐1,2,4‐triazin‐5‐amine]
remaining activity at 0.013 µM ([1]; CaBD1, 24c 0.013 microM, Exp1-2, read-out: Percent HTRF Signal): 94%
remaining activity at 0.033 µM ([1]; CaBD1, 24c 0.033 microM, Exp1-2, read-out: Percent HTRF Signal): 100%
remaining activity at 0.082 µM ([1]; CaBD1, 24c 0.082 microM, Exp1-2, read-out: Percent HTRF Signal): 99.6%
remaining activity at 0.2 µM ([1]; CaBD1, 24c 0.20 microM, Exp1-2, read-out: Percent HTRF Signal): 102%
remaining activity at […] ([1]; CaBD1, 24c 0.51 microM, Exp1-2, read-out: Percent HTRF Signal): 96.9%
remaining activity at 1.28 µM ([1]; CaBD1, 24c 1.28 microM, Exp1-2, read-out: Percent HTRF Signal): 99%
remaining activity at 3.2 µM ([1]; CaBD1, 24c 3.20 microM, Exp1-2, read-out: Percent HTRF Signal): 90.4%
remaining activity at 8 µM ([1]; CaBD1, 24c 8.00 microM, Exp1-2, read-out: Percent HTRF Signal): 85.5%
remaining activity at 20 µM ([1]; CaBD1, 24c 20.00 microM, Exp1-2, read-out: Percent HTRF Signal): 73.3%
inhibition of Bdf1 BD1 from C. albicans ([1]; HTRF, Fig S9C): weakly inhibited
remaining activity at 0.0021 µM ([2]; CauBD1, 24c 0.0021 microM, Exp1-3, read-out: Percent HTRF Signal): 100%
remaining activity at 0.0052 µM ([2]; CauBD1, 24c 0.0052 microM, Exp1-3, read-out: Percent HTRF Signal): 94.1%
remaining activity at 0.013 µM ([2]; CauBD1, 24c 0.013 microM, Exp1-3, read-out: Percent HTRF Signal): 99.7%
remaining activity at 0.033 µM ([2]; CauBD1, 24c 0.033 microM, Exp1-3, read-out: Percent HTRF Signal): 98.7%
remaining activity at 0.082 µM ([2]; CauBD1, 24c 0.082 microM, Exp1-3, read-out: Percent HTRF Signal): 99.6%
remaining activity at 0.2 µM ([2]; CauBD1, 24c 0.20 microM, Exp1-3, read-out: Percent HTRF Signal): 104%
remaining activity at […] ([2]; CauBD1, 24c 0.51 microM, Exp1-3, read-out: Percent HTRF Signal): 96.3%
remaining activity at 1.28 µM ([2]; CauBD1, 24c 1.28 microM, Exp1-3, read-out: Percent HTRF Signal): 91.7%
remaining activity at 3.2 µM ([2]; CauBD1, 24c 3.20 microM, Exp1-3, read-out: Percent HTRF Signal): 84.9%
remaining activity at 8 µM ([2]; CauBD1, 24c 8.00 microM, Exp1-3, read-out: Percent HTRF Signal): 83.4%
remaining activity at 20 µM ([2]; CauBD1, 24c 20.00 microM, Exp1-3, read-out: Percent HTRF Signal): 64.7%
inhibition of Bdf1 BD1 from C. auris ([2]; HTRF, Fig S9C): weakly inhibited
cytotoxicity toward HeLa cells (MTT) [3]: modest cytotoxicity
remaining activity at 195.3 µM ([4]; Bdf1-SmBiT, Swc4-LgBiT, 0.1953 mM, Fig 4C, read-out: Normalized nanoBiT signal): 93%
remaining activity at 390.6 µM ([4]; Bdf1-SmBiT, Swc4-LgBiT, 0.3906 mM, Fig 4C, read-out: Normalized nanoBiT signal): 104%
remaining activity at 781.3 µM ([4]; Bdf1-SmBiT, Swc4-LgBiT, 0.7813 mM, Fig 4C, read-out: Normalized nanoBiT signal): 108%
remaining activity at 1562.5 µM ([4]; Bdf1-SmBiT, Swc4-LgBiT, 1.5625 mM, Fig 4C, read-out: Normalized nanoBiT signal): 100%
remaining activity at 3125 µM ([4]; Bdf1-SmBiT, Swc4-LgBiT, 3.1250 mM, Fig 4C, read-out: Normalized nanoBiT signal): 101%
remaining activity ([4]; Bdf1-SmBiT, Swc4-LgBiT, […], Fig 4C, read-out: Normalized nanoBiT signal): 96%
inhibition of NanoBiT signal, Bdf1/Swc4 ([4]; control pair independent of Bdf1 BDs): not observed
remaining activity at 195.3 µM ([5]; Bdf1-SmBiT, Htz1-LgBiT, 0.1953 mM, Fig 4C, read-out: Normalized nanoBiT signal): 99%
remaining activity at 390.6 µM ([5]; Bdf1-SmBiT, Htz1-LgBiT, 0.3906 mM, Fig 4C, read-out: Normalized nanoBiT signal): 98%
remaining activity at 781.3 µM ([5]; Bdf1-SmBiT, Htz1-LgBiT, 0.7813 mM, Fig 4C, read-out: Normalized nanoBiT signal): 99%
remaining activity at 3125 µM ([5]; Bdf1-SmBiT, Htz1-LgBiT, 3.1250 mM, Fig 4C, read-out: Normalized nanoBiT signal): 98%
remaining activity ([5]; Bdf1-SmBiT, Htz1-LgBiT, […], Fig 4C, read-out: Normalized nanoBiT signal): 85%
IC50 ([5]; mean and s.d., 4 independent experiments, read-out: IC50 (μM) (ScBdf1 / H2A.Z) NanoBiT signal): 65 µM
remaining activity at 0.013 µM ([6]; CaBD2, 24c 0.013 microM, Exp1-2, read-out: Percent HTRF Signal): 94.3%
remaining activity at 0.033 µM ([6]; CaBD2, 24c 0.033 microM, Exp1-2, read-out: Percent HTRF Signal): 96.5%
remaining activity at 0.082 µM ([6]; CaBD2, 24c 0.082 microM, Exp1-2, read-out: Percent HTRF Signal): 102%
remaining activity at 0.2 µM ([6]; CaBD2, 24c 0.20 microM, Exp1-2, read-out: Percent HTRF Signal): 102%
remaining activity at […] ([6]; CaBD2, 24c 0.51 microM, Exp1-2, read-out: Percent HTRF Signal): 97.5%
remaining activity at 1.28 µM ([6]; CaBD2, 24c 1.28 microM, Exp1-2, read-out: Percent HTRF Signal): 98.1%
remaining activity at 3.2 µM ([6]; CaBD2, 24c 3.20 microM, Exp1-2, read-out: Percent HTRF Signal): 92.6%
remaining activity at 8 µM ([6]; CaBD2, 24c 8.00 microM, Exp1-2, read-out: Percent HTRF Signal): 90.1%
remaining activity at 20 µM ([6]; CaBD2, 24c 20.00 microM, Exp1-2, read-out: Percent HTRF Signal): 74.1%
inhibition of Bdf1 BD2 from C. albicans ([6]; HTRF, Fig S9C): weakly inhibited
